Residues, ends and D or L forms follow the SMILES beside them.
Experiments:
[1] = target: T1, endothelial cells (UniProt P05106+P06756); assay: Inhibition of 125I-fibrinogen binding to endothelial cells in suspension; parameters: species or system human; conditions: for Extent of inhibition of fibrinogen binding to endothelial cells: high concentrations of peptide
[2] = target: ADP-stimulated platelets (Homo sapiens, UniProt P05106+P08514); assay: Inhibition of 125I-fibrinogen binding to ADP-stimulated platelets; conditions: for Extent of inhibition of fibrinogen binding to platelets: high concentrations of peptide; for IC50: read-out: IC50 Platelets (Table III), mean of three separate experiments
[3] = tested on: washed platelets; assay: Fibrinogen-dependent aggregation of washed platelets; type: cell-based, human; conditions: 2 mM peptide, 20 μM ADP, medium 199
[4] = target: T1, endothelial cells; assay: Endothelial cell spreading on fibrinogen; type: cell-based, human; conditions: 2 mM peptide, medium 199, 2% BSA

T1 sequence (P06756 31-1048): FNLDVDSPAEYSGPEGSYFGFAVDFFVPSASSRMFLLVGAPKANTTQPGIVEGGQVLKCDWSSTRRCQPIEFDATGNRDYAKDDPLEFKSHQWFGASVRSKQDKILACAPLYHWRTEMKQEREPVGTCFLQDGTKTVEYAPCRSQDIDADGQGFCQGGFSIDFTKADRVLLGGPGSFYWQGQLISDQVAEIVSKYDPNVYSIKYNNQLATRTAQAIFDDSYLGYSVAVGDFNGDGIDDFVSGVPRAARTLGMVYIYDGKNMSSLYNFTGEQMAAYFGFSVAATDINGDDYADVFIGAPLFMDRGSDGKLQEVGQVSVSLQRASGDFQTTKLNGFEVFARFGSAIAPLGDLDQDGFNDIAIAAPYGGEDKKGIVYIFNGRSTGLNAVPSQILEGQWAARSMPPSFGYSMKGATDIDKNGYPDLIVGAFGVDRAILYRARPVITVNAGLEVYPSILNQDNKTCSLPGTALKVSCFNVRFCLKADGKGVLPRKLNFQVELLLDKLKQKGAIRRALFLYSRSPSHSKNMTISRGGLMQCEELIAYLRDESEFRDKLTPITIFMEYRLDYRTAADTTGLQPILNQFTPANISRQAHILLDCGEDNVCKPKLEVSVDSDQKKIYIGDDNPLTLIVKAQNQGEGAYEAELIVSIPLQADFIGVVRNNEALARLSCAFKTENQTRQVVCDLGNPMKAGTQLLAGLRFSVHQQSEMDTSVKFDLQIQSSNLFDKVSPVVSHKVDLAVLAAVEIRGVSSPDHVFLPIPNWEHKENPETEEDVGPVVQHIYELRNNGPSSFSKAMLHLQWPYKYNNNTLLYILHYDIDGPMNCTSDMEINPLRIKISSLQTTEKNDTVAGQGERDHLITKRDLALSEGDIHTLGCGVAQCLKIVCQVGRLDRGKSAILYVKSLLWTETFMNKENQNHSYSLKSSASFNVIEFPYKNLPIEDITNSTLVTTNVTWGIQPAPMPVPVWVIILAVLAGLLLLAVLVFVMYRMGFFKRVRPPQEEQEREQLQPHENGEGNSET
T1 sequence (P05106 27-788): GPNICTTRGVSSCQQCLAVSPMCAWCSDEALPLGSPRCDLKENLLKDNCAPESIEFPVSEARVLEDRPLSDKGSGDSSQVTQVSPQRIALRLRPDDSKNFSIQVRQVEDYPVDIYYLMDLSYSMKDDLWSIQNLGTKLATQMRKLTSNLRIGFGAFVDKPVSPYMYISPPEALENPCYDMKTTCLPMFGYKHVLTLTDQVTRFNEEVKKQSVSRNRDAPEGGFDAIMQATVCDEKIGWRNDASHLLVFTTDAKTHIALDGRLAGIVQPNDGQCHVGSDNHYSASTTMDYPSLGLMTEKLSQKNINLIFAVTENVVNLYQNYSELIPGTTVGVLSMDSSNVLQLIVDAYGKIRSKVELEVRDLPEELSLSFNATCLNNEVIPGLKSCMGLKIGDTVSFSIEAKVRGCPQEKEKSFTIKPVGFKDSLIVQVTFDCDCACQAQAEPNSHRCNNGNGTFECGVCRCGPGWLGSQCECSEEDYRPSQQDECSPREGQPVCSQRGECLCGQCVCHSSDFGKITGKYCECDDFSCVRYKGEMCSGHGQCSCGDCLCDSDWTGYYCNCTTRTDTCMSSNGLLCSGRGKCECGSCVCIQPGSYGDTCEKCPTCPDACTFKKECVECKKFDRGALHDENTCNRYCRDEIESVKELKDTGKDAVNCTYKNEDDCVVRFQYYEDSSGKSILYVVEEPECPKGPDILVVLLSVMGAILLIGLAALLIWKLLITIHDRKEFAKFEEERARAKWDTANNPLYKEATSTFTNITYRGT
T1 sequence (P02671 36-866 partner): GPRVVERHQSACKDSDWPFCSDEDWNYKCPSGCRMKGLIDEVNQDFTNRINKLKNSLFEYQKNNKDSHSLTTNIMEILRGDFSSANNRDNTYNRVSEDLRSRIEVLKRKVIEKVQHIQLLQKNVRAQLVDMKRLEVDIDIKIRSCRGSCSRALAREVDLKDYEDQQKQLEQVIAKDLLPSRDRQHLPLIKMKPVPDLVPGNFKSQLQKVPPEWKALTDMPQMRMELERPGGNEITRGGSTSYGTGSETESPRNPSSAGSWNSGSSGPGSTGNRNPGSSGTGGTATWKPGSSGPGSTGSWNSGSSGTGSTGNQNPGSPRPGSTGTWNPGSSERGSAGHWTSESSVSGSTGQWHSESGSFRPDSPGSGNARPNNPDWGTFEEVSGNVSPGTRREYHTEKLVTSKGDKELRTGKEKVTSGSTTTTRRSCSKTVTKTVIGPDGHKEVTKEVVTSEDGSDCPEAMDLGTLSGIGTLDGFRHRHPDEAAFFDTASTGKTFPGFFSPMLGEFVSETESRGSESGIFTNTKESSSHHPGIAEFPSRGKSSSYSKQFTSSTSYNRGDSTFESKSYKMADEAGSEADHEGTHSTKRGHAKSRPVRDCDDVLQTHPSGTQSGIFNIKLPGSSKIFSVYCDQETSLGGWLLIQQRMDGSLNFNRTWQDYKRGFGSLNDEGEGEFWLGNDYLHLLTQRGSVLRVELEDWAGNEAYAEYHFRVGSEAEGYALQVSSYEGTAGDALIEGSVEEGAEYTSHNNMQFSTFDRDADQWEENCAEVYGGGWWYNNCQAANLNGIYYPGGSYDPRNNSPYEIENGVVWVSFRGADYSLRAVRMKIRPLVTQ
T1 sequence (P02675 45-491 partner): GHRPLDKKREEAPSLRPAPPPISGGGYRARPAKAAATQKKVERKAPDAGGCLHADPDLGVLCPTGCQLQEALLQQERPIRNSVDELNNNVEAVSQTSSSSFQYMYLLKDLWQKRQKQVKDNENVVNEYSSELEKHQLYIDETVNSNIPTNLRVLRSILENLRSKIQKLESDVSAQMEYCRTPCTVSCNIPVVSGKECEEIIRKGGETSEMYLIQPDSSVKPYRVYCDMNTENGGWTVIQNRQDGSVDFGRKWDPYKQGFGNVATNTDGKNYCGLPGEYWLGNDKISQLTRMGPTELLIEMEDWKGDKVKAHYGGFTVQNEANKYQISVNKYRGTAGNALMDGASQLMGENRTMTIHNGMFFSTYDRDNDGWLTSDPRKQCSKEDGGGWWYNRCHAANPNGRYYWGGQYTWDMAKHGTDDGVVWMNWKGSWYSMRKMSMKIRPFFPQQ
T1 sequence (P02679 27-453 partner): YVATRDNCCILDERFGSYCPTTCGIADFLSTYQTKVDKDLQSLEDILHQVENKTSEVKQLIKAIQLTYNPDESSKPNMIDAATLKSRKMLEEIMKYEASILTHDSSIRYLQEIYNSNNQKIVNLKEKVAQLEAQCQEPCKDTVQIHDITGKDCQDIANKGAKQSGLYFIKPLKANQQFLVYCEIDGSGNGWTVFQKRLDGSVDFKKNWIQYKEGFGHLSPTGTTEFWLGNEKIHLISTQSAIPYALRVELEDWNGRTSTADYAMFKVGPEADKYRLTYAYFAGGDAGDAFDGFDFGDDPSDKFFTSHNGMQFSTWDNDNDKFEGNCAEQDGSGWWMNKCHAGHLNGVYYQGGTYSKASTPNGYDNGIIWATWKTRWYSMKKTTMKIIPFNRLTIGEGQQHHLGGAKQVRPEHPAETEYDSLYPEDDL
ADP-stimulated platelets, sequence (P08514 32-1039): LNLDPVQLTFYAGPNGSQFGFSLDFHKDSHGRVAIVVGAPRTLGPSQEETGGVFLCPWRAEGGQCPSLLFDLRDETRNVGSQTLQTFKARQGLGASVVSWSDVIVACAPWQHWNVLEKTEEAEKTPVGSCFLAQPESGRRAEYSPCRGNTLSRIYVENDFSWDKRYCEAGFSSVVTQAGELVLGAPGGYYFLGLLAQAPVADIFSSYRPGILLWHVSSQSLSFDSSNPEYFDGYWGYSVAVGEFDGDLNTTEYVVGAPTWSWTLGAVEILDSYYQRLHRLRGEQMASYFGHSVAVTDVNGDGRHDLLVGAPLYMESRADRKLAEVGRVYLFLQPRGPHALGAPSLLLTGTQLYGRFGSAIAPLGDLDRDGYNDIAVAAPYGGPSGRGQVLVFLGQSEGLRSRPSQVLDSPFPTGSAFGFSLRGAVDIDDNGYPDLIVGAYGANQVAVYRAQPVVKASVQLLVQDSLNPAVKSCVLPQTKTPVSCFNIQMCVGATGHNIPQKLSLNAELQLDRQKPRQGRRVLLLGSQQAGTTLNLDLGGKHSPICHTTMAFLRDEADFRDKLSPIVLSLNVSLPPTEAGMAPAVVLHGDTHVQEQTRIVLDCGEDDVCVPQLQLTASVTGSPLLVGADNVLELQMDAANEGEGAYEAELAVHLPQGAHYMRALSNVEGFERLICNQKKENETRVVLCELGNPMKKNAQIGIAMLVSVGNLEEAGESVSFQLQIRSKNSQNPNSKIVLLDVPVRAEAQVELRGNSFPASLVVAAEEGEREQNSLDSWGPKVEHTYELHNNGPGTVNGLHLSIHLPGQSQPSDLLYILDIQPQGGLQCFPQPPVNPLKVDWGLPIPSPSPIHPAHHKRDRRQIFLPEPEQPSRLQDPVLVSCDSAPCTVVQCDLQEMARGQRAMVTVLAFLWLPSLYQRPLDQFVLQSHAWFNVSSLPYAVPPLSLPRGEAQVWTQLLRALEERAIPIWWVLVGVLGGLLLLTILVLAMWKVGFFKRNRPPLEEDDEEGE
ADP-stimulated platelets, sequence (P05106 27-788): as the sequence (P05106 27-788) above
ADP-stimulated platelets, sequence (P02671 36-866 partner): as the sequence (P02671 36-866 partner) above
ADP-stimulated platelets, sequence (P02675 45-491 partner): as the sequence (P02675 45-491 partner) above
ADP-stimulated platelets, sequence (P02679 27-453 partner): as the sequence (P02679 27-453 partner) above

SMILES | Extent of inhibition of fibrinogen binding to endothelial cells [1] | Extent of inhibition of fibrinogen binding to platelets [2] | Potency on endothelial cells relative to platelets ([1]; fibrinogen binding inhibition) | Inhibition Platelet aggregation [3] | IC50 [2] | Endothelial cell spreading [4]
CC(C)[C@H](NC(=O)[C@H](CC(=O)O)NC(=O)CNC(=O)[C@H](C)NC(=O)[C@H](CCC(N)=O)NC(=O)[C@H](CCCCN)NC(=O)[C@H](C)NC(=O)CNC(=O)CN)C(=O)O [G9] (H-GGAKQAGDV-OH; N-terminus assumed) | only partially inhibited | complete |  |  |  | 
CC(C)C[C@H](NC(=O)[C@H](Cc1c[nH]cn1)NC(=O)[C@@H](N)Cc1c[nH]cn1)C(=O)NCC(=O)NCC(=O)N[C@@H](C)C(=O)N[C@@H](CCCCN)C(=O)N[C@@H](CCC(N)=O)C(=O)N[C@@H](C)C(=O)NCC(=O)N[C@@H](CC(=O)O)C(=O)N[C@H](C(=O)O)C(C)C [H12] (H-HHLGGAKQAGDV-OH; N-terminus assumed) | only partially inhibited | complete |  |  |  | 
CC(C)[C@H](NC(=O)[C@H](CC(=O)O)NC(=O)CNC(=O)[C@H](C)NC(=O)[C@H](CCC(N)=O)NC(=O)[C@@H](N)Cc1c[nH]cn1)C(=O)O [HQAGDV] (H-HQAGDV-OH; N-terminus assumed) |  |  | at least fivefold | 0% | > 1000 µM | + +
CC(C)[C@H](NC(=O)[C@H](CC(=O)O)NC(=O)CNC(=O)[C@H](C)NC(=O)[C@H](CCC(N)=O)NC(=O)[C@@H](N)CCCNC(=N)N)C(=O)O [RQAGDV] (H-RQAGDV-OH; N-terminus assumed) |  |  |  |  | > 1000 µM | 

— paper PMC2115601 (The Journal of Cell Biology, 1989)
